According to the NIST ThermoML archive (doi:10.1016/j.fluid.2015.06.041):

Assay: xn = mol fraction of the nth substance listed
Conditions: 101 kPa, Liquid; for viscosity: Capillary tube (Ostwald / Ubbelohde) method; for speed of sound: Frequency=2 MHz, Linear variable-path acoustic interferometer; for mass density: Vibrating tube method

ClCCCl [1,2-dichloroethane] + C1COCCO1
Conditions	mass density, 298.15 K [kg/m3]	mass density, 308.15 K [kg/m3]	mass density, 318.15 K [kg/m3]	speed of sound, 298.15 K [m/s]	viscosity, 298.15 K [mPa·s]	viscosity, 308.15 K [mPa·s]	viscosity, 318.15 K [mPa·s]
x2 = 0	1246.37	1231.21	1214.55	1193.6	0.7804	0.6744	0.5719
x2 = 0.0934	1221.34	1206.17	1189.14	1198.9	0.8045	0.6918	0.5856
x2 = 0.1881	1197.17	1182.34	1164.97	1204.7	0.8332	0.7127	0.6042
x2 = 0.2843	1173.99	1159.5	1141.96	1211.7	0.864	0.737	0.6266
x2 = 0.3819	1151.77	1137.63	1120	1218.7	0.8974	0.7628	0.6499
x2 = 0.4258	1142.09	1128.16	1110.67	1222.7	0.9132	0.7747	0.6611
x2 = 0.5816	1109.56	1096.17	1079.43	1240.4	0.9729	0.8211	0.705
x2 = 0.6838	1089.25	1076.38	1060.46	1256.1	1.016	0.8551	0.7374
x2 = 0.7875	1069.16	1056.58	1042.21	1277.4	1.064	0.8949	0.775
x2 = 0.8929	1048.86	1036.88	1024.08	1306.8	1.117	0.9435	0.8234

NCCO [2-aminoethan-1-ol] + C1COCCO1
Conditions	mass density, 298.15 K [kg/m3]	mass density, 308.15 K [kg/m3]	mass density, 318.15 K [kg/m3]	speed of sound, 298.15 K [m/s]	viscosity, 298.15 K [mPa·s]	viscosity, 308.15 K [mPa·s]	viscosity, 318.15 K [mPa·s]
x2 = 0	1011.79	1004.68	998.15	1716.8	18.95	11.96	7.913
x2 = 0.0597	1015.53	1007.5	1000.35	1696.8	16.05	10.32	6.94
x2 = 0.1251	1018.05	1010.07	1001.77	1677.7	13.39	8.772	6.01
x2 = 0.1969	1020.39	1011.65	1003.06	1654.2	10.97	7.34	5.132
x2 = 0.276	1022.47	1013.21	1004.08	1626.7	8.798	6.031	4.321
x2 = 0.3639	1024.23	1014.47	1004.75	1593.6	6.892	4.851	3.555
x2 = 0.4618	1025.64	1015.23	1004.92	1557.5	5.249	3.804	2.867
x2 = 0.5716	1026.41	1015.49	1005.06	1517.9	3.868	2.898	2.255
x2 = 0.6958	1027.09	1015.74	1004.96	1471.8	2.739	2.132	1.719
x2 = 0.8373	1027.58	1016.22	1005.1	1417.1	1.849	1.506	1.266

NCCN [ethane-1,2-diamine] + C1COCCO1
Conditions	mass density, 298.15 K [kg/m3]	mass density, 308.15 K [kg/m3]	mass density, 318.15 K [kg/m3]	speed of sound, 298.15 K [m/s]	viscosity, 298.18 K [mPa·s]	viscosity, 308.15 K [mPa·s]	viscosity, 318.15 K [mPa·s]
x2 = 0	894.79	885.63	867.62	1670.8	1.276	1.107	0.9445
x2 = 0.08	907.17	897.75	880.1	1625.9	1.263	1.092	0.9318
x2 = 0.1636	919.48	909.85	892.74	1585.3	1.25	1.078	0.9205
x2 = 0.2511	931.76	921.06	905.51	1546.2	1.239	1.066	0.9111
x2 = 0.3428	944.28	934.33	918.46	1506.8	1.228	1.053	0.9021
x2 = 0.385	949.92	939.89	924.35	1488.8	1.223	1.048	0.8983
x2 = 0.5399	970.35	959.96	945.42	1428.4	1.206	1.033	0.8929
x2 = 0.6461	984.1	973.48	959.55	1395.1	1.197	1.026	0.8913
x2 = 0.7578	998.37	987.59	974.27	1369.6	1.189	1.019	0.8918
x2 = 0.8756	1013.03	1002.04	989.43	1353.7	1.182	1.016	0.8902
